{"source": "patent US20050084524A1", "about": "“Method for potentiating activity of a chemotherapeutic drug” (ALZA Corporation, priority 1998, published 2005)", "key": {"BT474 xenografts [1]": {"tested_on": "BT474 xenografts", "assay": "BT474 human breast cancer xenograft, cisplatin studies 6-7", "assay_type": "in vivo, mice", "method": "In Study No. 6, mice were inoculated with BT474 cells.\nThe animals were dosed as described in Example 2, with the saline and chemotherapeutic agent administered intravenously once per week and the biological agent administered intraperitoneally twice per week.\n(§1) Two separate HER2-overexpressing human breast cancer xenograft models were utilized: BT474 and MDA453. The BT474 or MDA453 tumors were inoculated from cultured cells in exponential growth. Cells were trypsinized, collected and washed in media. Cells were counted by hemacytometer, spun down and resuspended in media at 50 million cells per milliliter of media (5 million cells per 0.1 ml injection volume). Resuspended cells were chilled, then mixed in an equal volume of Matrigel. Cells (0.2 ml, continuously mixed) were drawn into individual, chilled syringes for subcutaneous injection into the dorsum of each animal.\n(§2) Immune-deficient female mice (NCR.nu/nu, Taconic Farms, Germantown, N.Y.) were obtained from the vendor and acclimated for at least 7 days prior to initiation of experiments. Animals were housed in microisolator caging (Thoren Caging, Hazelton, Pa.) with ad lib gamma irradiated rodent food and autoclaved, acidified water. Lights were set for 12:12 light: dark cycle. All animals received a 0.72 mg estradiol 17β sustained release pellet (Innovative Research of America, Sarasota, Fla.) by subcutaneous injection 24 hours prior to tumor inoculation. Animals were randomized into treatment groups prior to inoculation of tumors.\n(§3) Animals were weighed prior to inoculation of tumors and at least weekly thereafter. Tumors were measured twice weekly throughout the experiment, beginning 6-8 days after tumor inoculation. Tumor measurements were made by digital caliper in 3 dimensions and the volume recorded as one half the product of these measurements. Any animal observed to have 15% or greater weight loss from the initial starting weight was immediately euthanized. Any animal observed to have greater than 4,000 mm^3 tumor volume was immediately euthanized.\n(§4) Animals were divided into 6 treatment groups (12 animals each) prior to inoculation of tumors in all experiments.\nAll treatments were administered for 3 weekly cycles. Treatment was initiated when average tumor volume was 75 mm^3 (approximately 6-10 days after inoculation).\nTumor volumes, measured repeatedly throughout experiments, were used for analysis as correlated information. Since tumor growth over time after treatment was of interest, repeated measurement analysis for each treatment group was performed. Growth rates (slope) for each treatment group within each experiment were calculated and compared in linear regression. If the growth rate was positive for a certain treatment, tumors were still growing even after receiving the drug; if the growth rate is negative, tumors began to shrink after receiving the drug; if the growth rate is 0, tumors stop growing after receiving the drug. A p-value of 0.05 or less is considered significant.\n(§5) Tumor size at specific times after treatment was compared between treated and control groups. Tumor growth inhibition was reported as % T/C which is the tumor size of each treated group divided by the control group, expressed as a percentage."}, "MDA453 xenografts [2]": {"tested_on": "MDA453 xenografts", "assay": "MDA453 human breast cancer xenograft, cisplatin study 8", "assay_type": "in vivo, mice", "method": "as §1, §2\n(§6) Animals were weighed prior to inoculation of tumors and at least weekly thereafter. Tumors were measured twice weekly throughout the experiment, beginning 6-8 days after tumor inoculation. Tumor measurements were made by digital caliper in 3 dimensions and the volume recorded as one half the product of these measurements. […]\nTumor volumes, measured repeatedly throughout experiments, were used for analysis as correlated information. […] Growth rates (slope) for each treatment group within each experiment were calculated and compared in linear regression. […]\nas §5"}, "[3]": {"assay": "Maximum tolerated dose (MTD) in immune-deficient mice", "assay_type": "in vivo", "conditions": "once weekly, intravenous", "from_the_text": "as §4"}, "B585 xenografts": {"tested_on": "B585 xenografts", "assay": "B585 primary human breast cancer xenograft, doxorubicin study 5", "assay_type": "in vivo, mice", "conditions": "doxorubicin HCl or liposome-entrapped 4 mg/kg iv once/week x3, anti-HER2 antibody 3 mg/kg ip twice/week x6", "method": "2. […] Resuspended cells were chilled, then mixed with an equal volume of Matrigel. Cells (5 million cells per 0.2 ml injection volume, continuously mixed) were drawn into individual, chilled syringes for subcutaneous injection into the dorsum of each animal.\nImmune deficient mice were used in all experiments. Study numbers 1, 2, 3 and 4 were conducted in homozygous nude female mice. Study number 5 was conducted in homozygous ICR scid female mice. All mice were obtained at the age of four weeks and acclimated for a minimum of 1 week prior to tumor inoculation. All mice were ear tagged for individual identification during acclimation. […]\nas §6, with “one-half” for “one half”\n(§7) Tumor volumes, measured repeatedly throughout the experiments, were used for analysis as correlated information. […] All tumor volumes were log transformed, with z=log10(y+1) where y is the calculated tumor volume, thus when y=0, z is meaningful and z=0. Log growth rates for transformed values, z, for each treatment group within each experiment were calculated and compared in linear regression. […]"}, "MDA453 xenografts [4]": {"tested_on": "MDA453 xenografts", "assay": "MDA453 human breast cancer xenograft, doxorubicin study 4", "assay_type": "in vivo, mice", "method": "(§8) 1. BT474 and MDA453 Cells: The BT474 and MDA453 tumors were each inoculated from cultured cells in exponential growth. Cells were trypsinized, collected and washed in media. Cells were counted by hemacytometer, spun down and resuspended in media at 50 million cells per milliliter of media. Resuspended cells were chilled, then mixed with an equal volume of Matrigel. Cells (5 million cells per 0.2 ml injection volume, continuously mixed) were drawn into individual, chilled syringes for subcutaneous injection into the dorsum of each animal.\nImmune deficient mice were used in all experiments. Study numbers 1, 2, 3 and 4 were conducted in homozygous nude female mice. […]\nas §6, with “one-half” for “one half”\nas §7"}, "A431 tumor": {"tested_on": "A431 tumor", "assay": "A431 tumor xenograft implanted subcutaneously in nude mice, tumor volume", "assay_type": "in vivo", "from_the_text": "In studies performed in support of the invention, a xenograft of the A431 tumor was implanted subcutaneously in nude mice. […] The liposomes included a vesicle-forming lipid derivatized with the hydrophilic polymer polyethyleneglycol."}, "BT474 xenografts [5]": {"tested_on": "BT474 xenografts", "assay": "BT474 human breast cancer xenograft, doxorubicin studies 1-3", "assay_type": "in vivo, mice", "method": "In study numbers 1, 2 and 3 immune-deficient mice were inoculated by subcutaneous injection into the dorsum with 5 million BT474 cells in 0.1 mL added to an equal volume of Matrigel for an inoculation volume of 0.2 mL. The inoculated mice were divided into six treatment groups of 12 mice each, prior to inoculation. Treatment was initiated when the average tumor volume was 100 mm^3, which occurred approximately 7-10 days after inoculation.\nSaline, doxorubicin and liposome-entrapped doxorubicin were administered by intravenous injection for three treatments. […] The animals were monitored daily and the tumors were measured in three dimensions twice weekly over the study period.\nas §8\nImmune deficient mice were used in all experiments. Study numbers 1, 2, 3 and 4 were conducted in homozygous nude female mice. Study number 5 was conducted in homozygous ICR scid female mice. All mice were obtained at the age of four weeks and acclimated for a minimum of 1 week prior to tumor inoculation. All mice were ear tagged for individual identification during acclimation. For each study, 75 mice were inoculated with tumors to supply 72 study animals at treatment.\nas §3, with “one-half” for “one half”, “euthanized by inhalation of 100% carbon dioxide.” for “euthanized.”\nAnimals were divided into 6 treatment groups prior to inoculation of tumors. […] Treatment was initiated when average tumor volume was 100 mm^3 (approximately 7-10 days after inoculation).\nTumor volumes, measured repeatedly throughout the experiments, were used for analysis as correlated information. Since tumor growth over time after treatment was of interest, repeated measurement analysis for each treatment group was performed. All tumor volumes were log transformed, with z=log10(y+1) where y is the calculated tumor volume, thus when y=0, z is meaningful and z=0. Log growth rates for transformed values, z, for each treatment group within each experiment were calculated and compared in linear regression. If the log growth rate is positive for a certain treatment, this means that the tumors still grow even after receiving the drug; if the log growth rate is negative, this means that the tumors begin to shrink after receiving the drug; if the log growth rate is 0, then the tumors stop growing after receiving the drug. A p-value of 0.05 or less is statically significant."}}, "note": "Marks after values point to notes of the source that are not given here.", "data": [{"smiles": "N.N.[Cl][Pt][Cl]", "note": "[Cisplatin, cisplatin]", "values": [{"measurement": "Size of treated tumors as a function of size of control tumors, % T/C, Study No. 6", "setting": "BT474 xenografts [1]; Day 44, BT474, cisplatin 6 mg/kg, antibody 3 mg/kg, control saline", "value": 10.0, "unit": "% T/C"}, {"measurement": "Size of treated tumors as a function of size of control tumors, % T/C, Study No. 7", "setting": "BT474 xenografts [1]; Day 49, BT474, cisplatin 4 mg/kg, antibody 0.5 mg/kg, control saline", "value": 41.7, "unit": "% T/C"}, {"measurement": "tumor volume over treatment period (FIGS. 7A-7B), in words", "setting": "BT474 xenografts [1]; Study No. 6, BT474, cisplatin 6 mg/kg, antibody 3 mg/kg", "value": "fared considerably better than the untreated animals"}, {"measurement": "tumor volume over treatment period (FIG. 8), in words", "setting": "BT474 xenografts [1]; Study No. 7, BT474, cisplatin 4 mg/kg, antibody 0.5 mg/kg", "value": "continual tumor growth"}, {"measurement": "Growth rate of tumors (slope), Study No. 7 BT474", "setting": "BT474 xenografts [1]; cisplatin or liposome-entrapped cisplatin 4 mg/kg iv once/week x3, anti-HER2 antibody 0.5 mg/kg ip twice/week x6", "value": "14.35^b"}, {"measurement": "Growth rate of tumors (slope), Study No. 6 BT474", "setting": "BT474 xenografts [1]; cisplatin or liposome-entrapped cisplatin 6 mg/kg iv once/week x3, anti-HER2 antibody 3 mg/kg ip twice/week x6", "value": 1.02}, {"measurement": "Size of treated tumors as a function of size of control tumors, % T/C, Study No. 8", "setting": "MDA453 xenografts [2]; Day 33, MDA453, cisplatin 4 mg/kg, antibody 1 mg/kg, control saline", "value": 56.1, "unit": "% T/C"}, {"measurement": "tumor volume over treatment period (FIGS. 9A-9B), in words", "setting": "MDA453 xenografts [2]; Study No. 8, MDA453, cisplatin 4 mg/kg, antibody 1 mg/kg", "value": "continual tumor growth"}, {"measurement": "Growth rate of tumors (slope), Study No. 8 MDA453", "setting": "MDA453 xenografts [2]; cisplatin or liposome-entrapped cisplatin 4 mg/kg iv once/week x3, anti-HER2 antibody 1 mg/kg ip twice/week x6", "value": "19.84^e"}, {"measurement": "MTD", "setting": "[3]", "value": 6, "unit": "mg/kg"}]}, {"smiles": "COc1cccc2c1C(=O)c1c(O)c3c(c(O)c1C2=O)C[C@@](O)(C(=O)CO)C[C@@H]3O[C@H]1C[C@H](N)[C@H](O)[C@H](C)O1", "note": "[doxorubicin]", "values": [{"measurement": "Log Growth Rate, Study No. 5", "setting": "B585 xenografts", "value": 0.052}, {"measurement": "Log Growth Rate, Study No. 4", "setting": "MDA453 xenografts [4]; MDA453, doxorubicin HCl or liposome-entrapped 5 mg/kg iv once/week x3, anti-HER2 antibody 5 mg/kg ip twice/week x6", "value": "0.020^a"}, {"measurement": "tumor volume over treatment period (FIGS. 5A-5B), in words", "setting": "MDA453 xenografts [4]; Study No. 4, MDA453, doxorubicin 5 mg/kg, liposomal 5 mg/kg, antibody 5 mg/kg", "value": "continual increase in tumor volume"}, {"measurement": "Tumor Volume at 40 days", "setting": "A431 tumor; 40 days following tumor implantation", "value": 1700, "unit": "mm^3"}, {"measurement": "Tumor Volume at 60 days", "setting": "A431 tumor; 60 days following tumor implantation", "value": 3650, "unit": "mm^3"}, {"measurement": "tumor volume as a function of time (FIG. 1), in words", "setting": "A431 tumor; treatment from day 6", "value": "still an increase in tumor size but to a lesser extent"}, {"measurement": "Log Growth Rate, Study No. 1", "setting": "BT474 xenografts [5]; BT474, doxorubicin HCl 4 mg/kg or liposome-entrapped 3 mg/kg iv once/week x3, anti-HER2 antibody 10 mg/kg ip twice/week x6", "value": 0.027}, {"measurement": "Log Growth Rate, Study No. 3", "setting": "BT474 xenografts [5]; BT474, doxorubicin HCl or liposome-entrapped 3 mg/kg iv once/week x3, anti-HER2 antibody 1 mg/kg ip twice/week x6", "value": "0.011^a"}, {"measurement": "Log Growth Rate, Study No. 2", "setting": "BT474 xenografts [5]; BT474, doxorubicin HCl or liposome-entrapped 5 mg/kg iv once/week x3, anti-HER2 antibody 3 mg/kg ip twice/week x6", "value": "0.010^a"}, {"measurement": "tumor volume over treatment period (FIGS. 2A-2B), in words", "setting": "BT474 xenografts [5]; Study No. 1, BT474, doxorubicin 4 mg/kg, liposomal 3 mg/kg, antibody 10 mg/kg", "value": "continual tumor growth"}, {"measurement": "tumor volume over treatment period (FIGS. 3A-3B), in words", "setting": "BT474 xenografts [5]; Study No. 2, BT474, doxorubicin 5 mg/kg, liposomal 5 mg/kg, antibody 3 mg/kg", "value": "reduced tumor volume relative to the control animals"}, {"measurement": "tumor volume over treatment period (FIGS. 4A-4B), in words", "setting": "BT474 xenografts [5]; Study No. 3, BT474, doxorubicin 3 mg/kg, liposomal 3 mg/kg, antibody 1 mg/kg", "value": "fared better than the untreated animals"}]}]}
